According to ChEMBL document CHEMBL4507307 (2021):
pIC50, pKi: −log10 of the molar value. Values belong to the compound of their own block, whether it stands above or below them. Active and inactive are the calls of the source. The calls are words filed in the database; no cut-off is given here.

Key:
Histamine H1 receptor [1] = target: T1, Histamine H1 receptor (Homo sapiens, UniProt P35367); assay: GPCRScan assay: inhibition of H1; set-up: radioligand conc. used [nm] 0.6 – 2.0, parental cells stable HEK; settings: for pKi: read-out: Ki
T1 sequence (P35367 whole entry): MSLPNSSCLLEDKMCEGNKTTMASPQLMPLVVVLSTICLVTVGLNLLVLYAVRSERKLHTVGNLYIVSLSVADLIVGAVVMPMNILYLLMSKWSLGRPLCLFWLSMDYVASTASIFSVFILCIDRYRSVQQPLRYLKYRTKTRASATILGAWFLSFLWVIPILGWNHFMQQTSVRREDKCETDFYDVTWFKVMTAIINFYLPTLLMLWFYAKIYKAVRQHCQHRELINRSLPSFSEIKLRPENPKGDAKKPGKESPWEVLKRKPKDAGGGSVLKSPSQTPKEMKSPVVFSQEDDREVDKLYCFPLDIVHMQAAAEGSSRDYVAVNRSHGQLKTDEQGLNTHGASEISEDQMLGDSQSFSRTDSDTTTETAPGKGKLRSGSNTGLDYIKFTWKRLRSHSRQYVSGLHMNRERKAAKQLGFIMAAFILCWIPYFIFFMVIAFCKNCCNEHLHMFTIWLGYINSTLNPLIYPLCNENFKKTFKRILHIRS

[2] = target: Dual specificity protein kinase CLK1 (Homo sapiens, UniProt P49759); assay: NanoBRET (SGC Frankfurt) (CLK1)
[3] = target: Dual specificity protein kinase CLK4 (Homo sapiens, UniProt Q9HAZ1); assay: NanoBRET (SGC Frankfurt) (CLK4)
[4] = target: Dual specificity tyrosine-phosphorylation-regulated kinase 1A (Homo sapiens, UniProt Q13627); assay: NanoBRET (SGC Frankfurt) (DYRK1A)
[5] = target: Dual specificity tyrosine-phosphorylation-regulated kinase 1B (Homo sapiens, UniProt Q9Y463); assay: NanoBRET (SGC Frankfurt) (DYRK1B)
[6] = target: Serine/threonine-protein kinase SIK2 (Homo sapiens, UniProt Q9H0K1); assay: NanoBRET (SGC Frankfurt) (SIK2)
Serine/threonine-protein kinase SIK2, sequence (Q9H0K1 whole entry): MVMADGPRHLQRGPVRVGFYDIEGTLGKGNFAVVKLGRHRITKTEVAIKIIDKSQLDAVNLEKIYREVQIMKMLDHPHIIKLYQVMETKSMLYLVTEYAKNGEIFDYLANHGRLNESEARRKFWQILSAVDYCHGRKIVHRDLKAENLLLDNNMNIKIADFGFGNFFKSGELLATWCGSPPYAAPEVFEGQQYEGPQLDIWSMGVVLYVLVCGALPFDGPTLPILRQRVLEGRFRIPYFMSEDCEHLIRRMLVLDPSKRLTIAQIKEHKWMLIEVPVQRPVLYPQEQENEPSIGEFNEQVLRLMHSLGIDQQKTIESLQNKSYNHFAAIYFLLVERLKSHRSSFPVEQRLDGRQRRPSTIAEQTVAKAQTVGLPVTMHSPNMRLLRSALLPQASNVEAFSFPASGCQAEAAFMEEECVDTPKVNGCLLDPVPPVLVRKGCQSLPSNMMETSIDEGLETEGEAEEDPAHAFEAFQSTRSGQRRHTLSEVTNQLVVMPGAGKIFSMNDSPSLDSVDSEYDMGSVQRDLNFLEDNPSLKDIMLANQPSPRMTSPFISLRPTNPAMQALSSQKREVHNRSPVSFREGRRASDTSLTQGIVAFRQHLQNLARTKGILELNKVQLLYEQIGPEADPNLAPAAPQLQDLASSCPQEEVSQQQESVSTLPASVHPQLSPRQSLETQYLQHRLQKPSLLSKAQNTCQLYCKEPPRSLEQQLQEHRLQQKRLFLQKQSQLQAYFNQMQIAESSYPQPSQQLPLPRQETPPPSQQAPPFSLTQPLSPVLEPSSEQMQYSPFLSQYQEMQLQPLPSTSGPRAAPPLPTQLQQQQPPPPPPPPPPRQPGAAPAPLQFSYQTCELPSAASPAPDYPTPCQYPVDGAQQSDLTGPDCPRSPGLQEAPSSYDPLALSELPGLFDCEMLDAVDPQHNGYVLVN

[7] = target: Receptor-type tyrosine-protein kinase FLT3 (Homo sapiens, UniProt P36888); assay: NanoBRET (SGC Frankfurt) (FLT3)
[8] = target: Receptor-type tyrosine-protein kinase FLT3 (Homo sapiens, UniProt P36888, D835V); assay: NanoBRET (SGC Frankfurt) (FLT3 (D835V))
[9] = target: 5-hydroxytryptamine receptor 1B (Homo sapiens, UniProt P28222); settings: Compound concentration 10.0 uM
[10] = target: 5-hydroxytryptamine receptor 1D (Homo sapiens, UniProt P28221); settings: Compound concentration 10.0 uM
[11] = target: 5-hydroxytryptamine receptor 1E (Homo sapiens, UniProt P28566); settings: Compound concentration 10.0 uM
5-hydroxytryptamine receptor 1E, sequence (P28566 whole entry): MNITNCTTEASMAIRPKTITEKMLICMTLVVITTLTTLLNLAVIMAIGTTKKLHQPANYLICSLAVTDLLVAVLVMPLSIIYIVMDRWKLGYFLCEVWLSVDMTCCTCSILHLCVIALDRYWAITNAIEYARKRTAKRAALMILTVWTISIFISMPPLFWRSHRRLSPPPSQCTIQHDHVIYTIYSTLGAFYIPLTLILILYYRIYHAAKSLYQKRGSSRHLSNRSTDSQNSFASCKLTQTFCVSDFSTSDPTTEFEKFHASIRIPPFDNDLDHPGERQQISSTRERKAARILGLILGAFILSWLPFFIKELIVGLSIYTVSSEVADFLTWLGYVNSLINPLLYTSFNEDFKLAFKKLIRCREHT

[12] = target: 5-hydroxytryptamine receptor 2A (Homo sapiens, UniProt P28223); settings: Compound concentration 10.0 uM
[13] = target: 5-hydroxytryptamine receptor 2B (Homo sapiens) (UniProt P41595); settings: Compound concentration 10.0 uM
[14] = target: 5-hydroxytryptamine receptor 2C (Homo sapiens) (UniProt P28335); settings: Compound concentration 10.0 uM
5-hydroxytryptamine receptor 2C (Homo sapiens), sequence (P28335 whole entry): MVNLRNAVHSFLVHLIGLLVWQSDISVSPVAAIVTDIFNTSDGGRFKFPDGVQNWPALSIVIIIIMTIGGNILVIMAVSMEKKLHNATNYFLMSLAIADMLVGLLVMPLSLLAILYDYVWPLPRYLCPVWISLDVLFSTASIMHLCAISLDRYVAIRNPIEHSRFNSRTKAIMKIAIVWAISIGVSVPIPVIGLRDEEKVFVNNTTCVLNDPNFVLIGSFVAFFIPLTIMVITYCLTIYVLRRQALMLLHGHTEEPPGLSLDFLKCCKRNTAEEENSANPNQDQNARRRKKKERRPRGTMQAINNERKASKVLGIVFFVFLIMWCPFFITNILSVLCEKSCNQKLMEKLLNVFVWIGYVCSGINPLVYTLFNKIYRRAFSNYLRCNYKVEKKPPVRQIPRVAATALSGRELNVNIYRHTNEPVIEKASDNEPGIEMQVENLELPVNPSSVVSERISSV

[15] = target: 5-hydroxytryptamine receptor 3A (Homo sapiens) (UniProt P46098); settings: Compound concentration 10.0 uM
[16] = target: 5-hydroxytryptamine receptor 5A (Homo sapiens, UniProt P47898); settings: Compound concentration 10.0 uM
5-hydroxytryptamine receptor 5A, sequence (P47898 whole entry): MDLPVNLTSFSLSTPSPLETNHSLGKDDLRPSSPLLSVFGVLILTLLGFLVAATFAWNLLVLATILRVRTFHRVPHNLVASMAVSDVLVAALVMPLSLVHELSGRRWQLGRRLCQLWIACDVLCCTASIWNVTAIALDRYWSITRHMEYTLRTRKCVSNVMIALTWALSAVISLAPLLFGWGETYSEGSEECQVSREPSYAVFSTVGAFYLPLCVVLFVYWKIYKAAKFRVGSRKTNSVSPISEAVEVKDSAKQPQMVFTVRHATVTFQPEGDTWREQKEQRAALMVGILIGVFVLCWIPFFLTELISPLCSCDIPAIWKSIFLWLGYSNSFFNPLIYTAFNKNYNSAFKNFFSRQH

[17] = target: 5-hydroxytryptamine receptor 7 (Homo sapiens) (UniProt P34969); settings: Compound concentration 10.0 uM
5-hydroxytryptamine receptor 7 (Homo sapiens), sequence (P34969 whole entry): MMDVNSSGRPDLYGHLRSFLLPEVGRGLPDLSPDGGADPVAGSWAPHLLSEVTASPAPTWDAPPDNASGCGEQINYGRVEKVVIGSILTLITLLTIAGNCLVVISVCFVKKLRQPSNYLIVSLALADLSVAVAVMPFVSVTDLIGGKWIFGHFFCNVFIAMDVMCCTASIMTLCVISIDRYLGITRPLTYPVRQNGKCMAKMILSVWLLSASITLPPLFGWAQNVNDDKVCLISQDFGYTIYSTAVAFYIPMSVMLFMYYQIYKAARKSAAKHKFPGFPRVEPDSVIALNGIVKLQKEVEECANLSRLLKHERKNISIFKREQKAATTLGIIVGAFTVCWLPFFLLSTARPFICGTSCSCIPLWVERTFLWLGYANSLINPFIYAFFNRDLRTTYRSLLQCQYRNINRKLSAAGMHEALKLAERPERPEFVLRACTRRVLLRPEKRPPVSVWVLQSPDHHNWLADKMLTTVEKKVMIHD

D(1A) dopamine receptor = D(1A) dopamine receptor (Homo sapiens, UniProt P21728); settings: Compound concentration 10.0 uM
D(2) dopamine receptor = D(2) dopamine receptor (Homo sapiens, UniProt P14416); settings: Compound concentration 10.0 uM
D(3) dopamine receptor = D(3) dopamine receptor (Homo sapiens, UniProt P35462); settings: Compound concentration 10.0 uM
[18] = target: D(4) dopamine receptor (Homo sapiens) (UniProt P21917); settings: Compound concentration 10.0 uM
D(4) dopamine receptor (Homo sapiens), sequence (P21917 whole entry): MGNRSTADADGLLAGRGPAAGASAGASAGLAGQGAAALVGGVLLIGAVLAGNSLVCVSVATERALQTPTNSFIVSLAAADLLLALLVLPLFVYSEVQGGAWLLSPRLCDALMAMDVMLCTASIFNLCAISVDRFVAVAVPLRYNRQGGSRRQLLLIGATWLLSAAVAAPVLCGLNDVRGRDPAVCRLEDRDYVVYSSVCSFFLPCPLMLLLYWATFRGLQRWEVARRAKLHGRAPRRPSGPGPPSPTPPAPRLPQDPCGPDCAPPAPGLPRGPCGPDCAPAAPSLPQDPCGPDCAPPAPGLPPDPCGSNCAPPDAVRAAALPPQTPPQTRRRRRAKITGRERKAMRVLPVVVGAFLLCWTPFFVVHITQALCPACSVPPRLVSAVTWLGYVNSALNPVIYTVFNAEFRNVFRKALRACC

[19] = target: D(1B) dopamine receptor (Homo sapiens) (UniProt P21918); settings: Compound concentration 10.0 uM
[20] = target: Sodium-dependent serotonin transporter (Homo sapiens) (UniProt P31645); settings: Compound concentration 10.0 uM
[21] = target: Sodium-dependent dopamine transporter (Homo sapiens) (UniProt Q01959); settings: Compound concentration 10.0 uM
Mu-type opioid receptor = Mu-type opioid receptor (Homo sapiens, UniProt P35372); settings: Compound concentration 10.0 uM
[22] = target: Kappa-type opioid receptor (Homo sapiens, UniProt P41145); settings: Compound concentration 10.0 uM
[23] = target: T2, GABA-A receptor; anion channel (Rattus norvegicus) (UniProt O09028+P15431+P18506+P18508+P19969+P20236+P23574+P23576+P28471+P28473+P30191+P62813+P63079+P63138+Q91ZM7+Q9ES14); settings: Compound concentration 10.0 uM
Histamine H1 receptor [24] = target: T1, Histamine H1 receptor; settings: Compound concentration 10.0 uM
Histamine H2 receptor = Histamine H2 receptor (Homo sapiens, UniProt P25021); settings: Compound concentration 10.0 uM
Histamine H2 receptor, sequence (P25021 whole entry): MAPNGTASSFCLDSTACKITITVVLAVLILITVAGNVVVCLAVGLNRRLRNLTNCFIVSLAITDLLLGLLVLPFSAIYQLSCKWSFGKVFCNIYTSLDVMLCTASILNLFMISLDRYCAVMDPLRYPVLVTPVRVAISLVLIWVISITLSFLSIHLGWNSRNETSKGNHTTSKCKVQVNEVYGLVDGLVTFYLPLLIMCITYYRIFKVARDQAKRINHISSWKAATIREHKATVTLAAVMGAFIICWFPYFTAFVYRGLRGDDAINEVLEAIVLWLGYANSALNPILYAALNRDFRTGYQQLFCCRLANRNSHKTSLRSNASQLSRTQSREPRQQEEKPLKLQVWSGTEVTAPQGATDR

[25] = target: Histamine H3 receptor (Homo sapiens) (UniProt Q9Y5N1); settings: Compound concentration 10.0 uM
[26] = target: Histamine H4 receptor (Homo sapiens) (UniProt Q9H3N8); settings: Compound concentration 10.0 uM
[27] = target: Alpha-1A adrenergic receptor (Homo sapiens) (UniProt P35348); settings: Compound concentration 10.0 uM
[28] = target: Alpha-1B adrenergic receptor (Homo sapiens) (UniProt P35368); settings: Compound concentration 10.0 uM
[29] = target: Alpha-2A adrenergic receptor (Homo sapiens) (UniProt P08913); settings: Compound concentration 10.0 uM
Alpha-2A adrenergic receptor (Homo sapiens), sequence (P08913 whole entry): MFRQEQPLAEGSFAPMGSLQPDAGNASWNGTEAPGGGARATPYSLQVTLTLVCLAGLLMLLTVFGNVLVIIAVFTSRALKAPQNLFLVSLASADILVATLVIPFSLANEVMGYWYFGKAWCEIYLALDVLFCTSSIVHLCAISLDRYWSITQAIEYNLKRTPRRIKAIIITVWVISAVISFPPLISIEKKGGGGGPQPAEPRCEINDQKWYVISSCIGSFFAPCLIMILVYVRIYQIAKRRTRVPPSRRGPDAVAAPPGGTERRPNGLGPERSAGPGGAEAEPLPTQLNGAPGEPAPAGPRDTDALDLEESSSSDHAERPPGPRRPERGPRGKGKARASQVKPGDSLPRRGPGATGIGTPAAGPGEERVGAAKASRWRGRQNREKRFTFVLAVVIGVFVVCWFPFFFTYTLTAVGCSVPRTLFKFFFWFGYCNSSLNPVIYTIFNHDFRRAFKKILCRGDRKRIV

[30] = target: Alpha-2B adrenergic receptor (Homo sapiens) (UniProt P18089); settings: Compound concentration 10.0 uM
[31] = target: Alpha-2C adrenergic receptor (Homo sapiens) (UniProt P18825); settings: Compound concentration 10.0 uM
[32] = target: Beta-1 adrenergic receptor (Homo sapiens) (UniProt P08588); settings: Compound concentration 10.0 uM
Beta-1 adrenergic receptor (Homo sapiens), sequence (P08588 whole entry, looked up): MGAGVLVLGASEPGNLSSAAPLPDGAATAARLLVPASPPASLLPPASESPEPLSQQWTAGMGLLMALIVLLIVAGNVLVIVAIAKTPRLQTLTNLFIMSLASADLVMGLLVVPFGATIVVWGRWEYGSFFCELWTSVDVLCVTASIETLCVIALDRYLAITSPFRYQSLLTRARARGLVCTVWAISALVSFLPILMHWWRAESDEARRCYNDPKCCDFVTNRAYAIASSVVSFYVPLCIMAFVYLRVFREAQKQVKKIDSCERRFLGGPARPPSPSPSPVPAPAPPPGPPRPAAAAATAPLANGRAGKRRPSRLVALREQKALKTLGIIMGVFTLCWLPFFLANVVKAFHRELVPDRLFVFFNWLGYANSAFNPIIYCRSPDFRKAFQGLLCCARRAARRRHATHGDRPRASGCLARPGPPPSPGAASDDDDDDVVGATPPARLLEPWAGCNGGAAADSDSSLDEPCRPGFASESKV

[33] = target: Muscarinic acetylcholine receptor M2 (Homo sapiens) (UniProt P08172); settings: Compound concentration 10.0 uM
[34] = target: Muscarinic acetylcholine receptor M3 (Homo sapiens) (UniProt P20309); settings: Compound concentration 10.0 uM
[35] = target: Muscarinic acetylcholine receptor M4 (Homo sapiens) (UniProt P08173); settings: Compound concentration 10.0 uM
[36] = target: Muscarinic acetylcholine receptor M5 (Homo sapiens) (UniProt P08912); settings: Compound concentration 10.0 uM
[37] = target: T2, GABA-A receptor; anion channel (Rattus norvegicus); settings: Compound concentration 10.0 uM; remark: listed apart in the source
[38] = target: Sigma intracellular receptor 2 (Homo sapiens, UniProt Q5BJF2); settings: Compound concentration 10.0 uM
Sigma intracellular receptor 2, sequence (Q5BJF2 whole entry): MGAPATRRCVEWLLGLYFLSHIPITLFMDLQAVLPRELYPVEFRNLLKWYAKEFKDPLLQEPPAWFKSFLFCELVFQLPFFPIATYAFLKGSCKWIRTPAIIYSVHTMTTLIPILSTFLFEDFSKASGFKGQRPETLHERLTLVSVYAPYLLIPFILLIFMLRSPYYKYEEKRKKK

[39] = target: Sigma non-opioid intracellular receptor 1 (Homo sapiens, UniProt Q99720); settings: Compound concentration 10.0 uM

pKi (Histamine H1 receptor [1]): 5.72 | Ki (Histamine H1 receptor [1]; read-out: pKi (converted)): 1320 nM | IC50 [2]: > 10000 nM (not active) | IC50 [3]: > 10000 nM (not active) | IC50 [4]: > 10000 nM (not active) | IC50 [5]: > 10000 nM (not active) | IC50 [6]: > 10000 nM (not active) | IC50 [7]: > 10000 nM (not active) | IC50 [8]: > 10000 nM (not active) | inhibition [9]: 66.9% | inhibition [10]: 50.5% | inhibition [11]: 60.5% | inhibition [12]: 92.3% | inhibition [13]: 44.1% | inhibition [14]: 83% | inhibition [15]: 6.47% | inhibition [16]: 83.2% | inhibition [17]: 45.2% | inhibition (D(1A) dopamine receptor): 58.2% | inhibition (D(2) dopamine receptor): 57.5% | inhibition (D(3) dopamine receptor): 78.9% | inhibition [18]: 34.8% | inhibition [19]: 29.7% | inhibition [20]: 26.3% | inhibition [21]: -0.51% | inhibition (Mu-type opioid receptor): 55.7% | inhibition [22]: 54.4% | inhibition [23]: 4.08% | inhibition (Histamine H1 receptor [24]): 83% | inhibition (Histamine H2 receptor): 86.8% | inhibition [25]: 43.8% | inhibition [26]: 31.9% | inhibition [27]: 66.4% | inhibition [28]: 50.5% | inhibition [29]: 83.7% | inhibition [30]: 77.6% | inhibition [31]: 88.5% | inhibition [32]: 28% | inhibition [33]: 6.55% | inhibition [34]: 40.4% | inhibition [35]: 0.99% | inhibition [36]: 30.8% | inhibition [37]: 13.5% | inhibition [38]: 97.9% | inhibition [39]: 90%
Compound: CN1CCN(C(=O)C(C)(C)c2ccc(C(=O)Nc3cn4cc(-c5cc(C(C)(C)C)cc(C(C)(C)C)c5)ccc4n3)cc2)CC1 [T3-CLK-N]

pKi (Histamine H1 receptor [1]): 5.67 | IC50 [2]: 3.49 nM (active) | IC50 [3]: 1.98 nM (active) | pIC50 [4]: 7.49 | pIC50 [5]: 7.17 | IC50 [6]: 125 nM (not active) | IC50 [7]: 668 nM (not active) | IC50 [8]: 138 nM (not active) | inhibition [9]: 7.83% | inhibition [10]: 5.95% | inhibition [11]: -1.52% | inhibition [12]: -2.63% | inhibition [13]: -7.63% | inhibition [14]: 12.4% | inhibition [15]: 1.81% | inhibition [16]: 4% | inhibition [17]: -5.21% | inhibition (D(1A) dopamine receptor): 4.41% | inhibition (D(2) dopamine receptor): 10.8% | inhibition (D(3) dopamine receptor): 12.8% | inhibition [18]: 9.12% | inhibition [19]: -7.3% | inhibition [20]: -3.55% | inhibition [21]: 8.33% | inhibition (Mu-type opioid receptor): 5.33% | inhibition [22]: -6.32% | inhibition [23]: -5.11% | inhibition (Histamine H1 receptor [24]): 54.9% | inhibition (Histamine H2 receptor): 19.4% | inhibition [25]: 16.6% | inhibition [26]: 0.74% | inhibition [27]: -5.18% | inhibition [28]: 4.68% | inhibition [29]: 2.61% | inhibition [30]: 19.3% | inhibition [31]: 17.2% | inhibition [32]: -7.22% | inhibition [33]: 3.82% | inhibition [34]: 21.1% | inhibition [35]: 25.2% | inhibition [36]: 9.31% | inhibition [37]: 7.47% | inhibition [38]: 13.4% | inhibition [39]: 16.9%
Compound: CN1CCN(C(=O)C(C)(C)c2ccc(C(=O)Nc3cn4cc(-c5ccncc5)ccc4n3)cc2)CC1 [T3-CLK]
